Patent publication US10906897B2, “Microbiocidal heterobicyclic derivatives” (priority 2015, dated 2021)

How the values were obtained:
[1] = tested on: Botryotinia fuckeliana (Botrytis cinerea); assay: Botryotinia fuckeliana (Botrytis cinerea) / liquid culture (Gray mould); assay type: cell-based; settings: growth inhibition photometrically 3-4 days after application, compared to untreated control
[2] = tested on: Glomerella lagenarium (Colletotrichum lagenarium); assay: Glomerella lagenarium (Colletotrichum lagenarium) / liquid culture (Anthracnose); assay type: cell-based; settings: Colletotrichum orbiculare, growth inhibition photometrically 3-4 days after application, compared to untreated control
Fusarium culmorum = assay: microbe, parasite or virus in culture; assay type: cell-based; settings: read-out: control of Fusarium culmorum
Gaeumannomyces graminis = Gaeumannomyces graminis / liquid culture (Take-all of cereals); assay type: cell-based; settings: growth inhibition photometrically 4-5 days after application, compared to untreated control
[3] = tested on: Magnaporthe grisea (Pyricularia oryzae); assay: microbe, parasite or virus in culture; assay type: cell-based; settings: read-out: control of Magnaporthe grisea
Sclerotinia sclerotiorum = Sclerotinia sclerotiorum / liquid culture (cottony rot); settings: read-out: control of Sclerotinia sclerotiorum
Experimental: Sclerotinia sclerotiorum/Liquid Culture (Cottony Rot)
Mycelia fragments of a newly grown liquid culture of the fungus are directly mixed into 5 nutrient broth (Vogels broth). After placing a (DMSO) solution of test compound into a microtiter plate (96-well format) the nutrient broth containing the fungal material is added. The test plates are incubated at 24° C. and the inhibition of growth is determined photometrically 3-4 days after application.

[4] = tested on: Monographella nivalis (Microdochium nivale); assay: Monographella nivalis (Microdochium nivale) / liquid culture (foot rot cereals); assay type: cell-based; settings: 96 h, growth inhibition photometrically 4-5 days after application, compared to untreated control
[5] = tested on: Magnaporthe grisea (Pyricularia oryzae); assay: whole plant or invertebrate; assay type: in vivo; settings: foliar, read-out: control of Magnaporthe grisea

## CC1(C)N=C(c2cnc3ccccn23)c2cccc(F)c2C1(C)C [Compound E-1, 5-fluoro-1-imidazo[1,2-a]pyridin-3-yl-3,3,4,4-tetramethyl-isoquinoline]
[1]
  inhibition of growth at 20 ppm: ≥ 80%
[2]
  inhibition of growth at 20 ppm: ≥ 80%
Fusarium culmorum
  inhibition of growth at 20 ppm: ≥ 80%
Gaeumannomyces graminis
  inhibition of growth at 20 ppm: ≥ 80%
other
  melting point: 129 to 130 °C

## Cc1cccn2c(C3=NCC(C)(C)c4ccccc43)cnc12 [Compound E-51, 4,4-dimethyl-1-(8-methylimidazo[1,2-a]pyridin-3-yl)-3H-isoquinoline]
[1]
  inhibition of growth at 20 ppm: ≥ 80%
[3]
  inhibition of growth at 60 ppm: ≥ 80%
Sclerotinia sclerotiorum
  inhibition of growth at 20 ppm: ≥ 80%

## CC1(C)N=C(c2cnc3c(Br)cccn23)c2cccc(F)c2C1(F)F [Compound E-37, 1-(8-bromoimidazo[1,2-a]pyridin-3-yl)-4,4,5-trifluoro-3,3-dimethyl-isoquinoline]
[2]
  inhibition of growth at 20 ppm: ≥ 80%
Gaeumannomyces graminis
  inhibition of growth at 20 ppm: ≥ 80%

## CC1(C)N=C(c2cnc3c(F)cccn23)c2cccc(F)c2C1(C)C [Compound E-6, 5-fluoro-1-(8-fluoroimidazo[1,2-a]pyridin-3-yl)-3,3,4,4-tetramethyl-isoquinoline]
[1]
  inhibition of growth at 20 ppm: ≥ 80%
[2]
  inhibition of growth at 20 ppm: ≥ 80%
Fusarium culmorum
  inhibition of growth at 20 ppm: ≥ 80%
Gaeumannomyces graminis
  inhibition of growth at 20 ppm: ≥ 80%
[4]
  inhibition of growth at 20 ppm: ≥ 80%
[5]
  pest or weed control at 200 ppm: ≥ 50%
other
  melting point: 156 to 157 °C

## Cc1cccn2c(C3=NCC4(CCC4)c4ccccc43)cnc12 [Compound E-53, 1-(8-methylimidazo[1,2-a]pyridin-3-yl)spiro[3H-isoquinoline-4,1′-cyclobutane]]
[1]
  inhibition of growth at 20 ppm: ≥ 80%
[4]
  inhibition of growth at 20 ppm: ≥ 80%
[3]
  inhibition of growth at 60 ppm: ≥ 80%
other
  melting point: 127 to 129 °C

## Cc1c(Br)ccc2c(C3=NC(C)(C)C(=O)c4ccccc43)cnn12 [Compound E-78, 1-(6-bromo-7-methyl-pyrazolo[1,5-a]pyridin-3-yl)-3,3-dimethyl-isoquinolin-4-one]
[1]
  inhibition of growth at 20 ppm: ≥ 80%
[2]
  inhibition of growth at 20 ppm: ≥ 80%
Fusarium culmorum
  inhibition of growth at 20 ppm: ≥ 80%
[4]
  inhibition of growth at 20 ppm: ≥ 80%
[3]
  inhibition of growth at 60 ppm: ≥ 80%
other
  melting point: 166 to 168 °C

## Cc1cccn2c(C3=NC(C)(C)C(C)(C)c4c(F)cccc43)cnc12 [Compound E-9, 5-fluoro-3,3,4,4-tetramethyl-1-(8-methylimidazo[1,2-a]pyridin-3-yl)isoquinoline]
[1]
  inhibition of growth at 20 ppm: ≥ 80%
[2]
  inhibition of growth at 20 ppm: ≥ 80%
Fusarium culmorum
  inhibition of growth at 20 ppm: ≥ 80%
Gaeumannomyces graminis
  inhibition of growth at 20 ppm: ≥ 80%
[4]
  inhibition of growth at 20 ppm: ≥ 80%
[5]
  pest or weed control at 200 ppm: ≥ 50%
other
  melting point: 160 to 161 °C

## Cc1cccn2c(C3=NC(C)(C)C(F)(F)c4ccccc43)cnc12 [Compound E-45, 4,4-difluoro-3,3-dimethyl-1-(8-methylimidazo[1,2-a]pyridin-3-yl)isoquinoline]
[1]
  inhibition of growth at 20 ppm: ≥ 80%
[2]
  inhibition of growth at 20 ppm: ≥ 80%
Fusarium culmorum
  inhibition of growth at 20 ppm: ≥ 80%
[4]
  inhibition of growth at 20 ppm: ≥ 80%
[5]
  pest or weed control at 200 ppm: ≥ 50%

## CC1(C)Cc2ccccc2C(c2cnc3c(Br)cccn23)=N1 [Compound E-41, 1-(8-bromoimidazo[1,2-a]pyridin-3-yl)-3,3-dimethyl-4H-isoquinoline]
Gaeumannomyces graminis
  inhibition of growth at 20 ppm: ≥ 80%
other
  melting point: 132 to 133 °C

## COc1ccc2ncc(C3=NC(C)(C)C(C)(C)c4c(F)cccc43)n2c1 [Compound E-25, 5-fluoro-1-(6-methoxyimidazo[1,2-a]pyridin-3-yl)-3,3,4,4-tetramethyl-isoquinoline]
Gaeumannomyces graminis
  inhibition of growth at 20 ppm: ≥ 80%
other
  melting point: 214 to 215 °C

## CC1(C)N=C(c2cnc3c(Br)cccn23)c2cccc(F)c2C1(C)C [Compound E-8, 1-(8-bromoimidazo[1,2-a]pyridin-3-yl)-5-fluoro-3,3,4,4-tetramethyl-isoquinoline]
[1]
  inhibition of growth at 20 ppm: ≥ 80%
[2]
  inhibition of growth at 20 ppm: ≥ 80%
Fusarium culmorum
  inhibition of growth at 20 ppm: ≥ 80%
[5]
  pest or weed control at 200 ppm: ≥ 50%

## Cc1ccc2c(C3=NC(C)(C)C(C)(C)c4c(F)cccc43)cnn2c1C [Compound E-63, 1-(6,7-dimethylpyrazolo[1,5-a]pyridin-3-yl)-5-fluoro-3,3,4,4-tetramethyl-isoquinoline]
[1]
  inhibition of growth at 20 ppm: ≥ 80%
[2]
  inhibition of growth at 20 ppm: ≥ 80%
Fusarium culmorum
  inhibition of growth at 20 ppm: ≥ 80%
Gaeumannomyces graminis
  inhibition of growth at 20 ppm: ≥ 80%
[5]
  pest or weed control at 200 ppm: ≥ 50%
[3]
  inhibition of growth at 60 ppm: ≥ 80%
other
  melting point: 175 to 176 °C

## CC1(C)N=C(c2cnn3cc(C#N)ccc23)c2ccccc2C1(F)F [Compound E-85, 3-(4,4-difluoro-3,3-dimethyl-1-isoquinolyl)pyrazolo[1,5-a]pyridine-6-carbonitrile]
[1]
  inhibition of growth at 20 ppm: ≥ 80%
[3]
  inhibition of growth at 60 ppm: ≥ 80%
other
  melting point: 191 to 194 °C

## Cc1ccn2c(C3=NC(C)(C)C(C)(C)c4c(F)cccc43)cnc2c1C [Compound E-50, 1-(7,8-dimethylimidazo[1,2-a]pyridin-3-yl)-5-fluoro-3,3,4,4-tetramethyl-isoquinoline]
[1]
  inhibition of growth at 20 ppm: ≥ 80%
[2]
  inhibition of growth at 20 ppm: ≥ 80%
Fusarium culmorum
  inhibition of growth at 20 ppm: ≥ 80%
[3]
  inhibition of growth at 60 ppm: ≥ 80%
other
  melting point: 185 to 186 °C
Sclerotinia sclerotiorum
  inhibition of growth at 20 ppm: ≥ 80%

## C#Cc1ccc2c(C3=NC(C)(C)C(F)(F)c4ccccc43)cnn2c1 [Compound E-90, 1-(6-ethynylpyrazolo[1,5-a]pyridin-3-yl)-4,4-difluoro-3,3-dimethyl-isoquinoline]
[2]
  inhibition of growth at 20 ppm: ≥ 80%
Gaeumannomyces graminis
  inhibition of growth at 20 ppm: ≥ 80%
[4]
  inhibition of growth at 20 ppm: ≥ 80%
[3]
  inhibition of growth at 60 ppm: ≥ 80%
other
  melting point: 145 to 147 °C

## Cc1ccc2c(C3=NC4(CC4)C4(CC4)c4ccccc43)cnn2c1C [Compound E-94]
[2]
  inhibition of growth at 20 ppm: ≥ 80%
Fusarium culmorum
  inhibition of growth at 20 ppm: ≥ 80%
Gaeumannomyces graminis
  inhibition of growth at 20 ppm: ≥ 80%
[4]
  inhibition of growth at 20 ppm: ≥ 80%
[5]
  pest or weed control at 200 ppm: ≥ 50%
[3]
  inhibition of growth at 60 ppm: ≥ 80%

## Cc1cccn2c(C3=NC(C)(C)C(C)(C)c4ccccc43)cnc12 [Compound E-33, 3,3,4,4-tetramethyl-1-(8-methylimidazo[1,2-a]pyridin-3-yl)isoquinoline]
[1]
  inhibition of growth at 20 ppm: ≥ 80%
[2]
  inhibition of growth at 20 ppm: ≥ 80%
Fusarium culmorum
  inhibition of growth at 20 ppm: ≥ 80%
[4]
  inhibition of growth at 20 ppm: ≥ 80%
[5]
  pest or weed control at 200 ppm: ≥ 50%

## CC1(C)N=C(c2cnn3ccccc23)c2cccc(F)c2C1(C)C [Compound E-58, 5-fluoro-3,3,4,4-tetramethyl-1-pyrazolo[1,5-a]pyridin-3-yl-isoquinoline]
[1]
  inhibition of growth at 20 ppm: ≥ 80%
[2]
  inhibition of growth at 20 ppm: ≥ 80%
Gaeumannomyces graminis
  inhibition of growth at 20 ppm: ≥ 80%
other
  melting point: 124 to 126 °C

## Cc1cccn2ncc(C3=NC4(CC4)C4(CC4)c4ccccc43)c12 [Compound E-95]
[1]
  inhibition of growth at 20 ppm: ≥ 80%
[2]
  inhibition of growth at 20 ppm: ≥ 80%
[5]
  pest or weed control at 200 ppm: ≥ 50%
[3]
  inhibition of growth at 60 ppm: ≥ 80%

## COc1cccc2c(C3=NC(C)(C)C(F)(F)c4ccccc43)cnn12 [Compound E-92, 4,4-difluoro-1-(7-methoxypyrazolo[1,5-a]pyridin-3-yl)-3,3-dimethyl-isoquinoline]
[1]
  inhibition of growth at 20 ppm: ≥ 80%
[2]
  inhibition of growth at 20 ppm: ≥ 80%
Fusarium culmorum
  inhibition of growth at 20 ppm: ≥ 80%
Gaeumannomyces graminis
  inhibition of growth at 20 ppm: ≥ 80%
[4]
  inhibition of growth at 20 ppm: ≥ 80%
[5]
  pest or weed control at 200 ppm: ≥ 50%
[3]
  inhibition of growth at 60 ppm: ≥ 80%
other
  melting point: 120 to 124 °C

## Cc1ccc2c(C3=NC(C)(C)C(=O)c4cc(F)ccc43)cnn2c1C [Compound E-74, 1-(6,7-dimethylpyrazolo[1,5-a]pyridin-3-yl)-6-fluoro-3,3-dimethyl-isoquinolin-4-one]
[1]
  inhibition of growth at 20 ppm: ≥ 80%
[2]
  inhibition of growth at 20 ppm: ≥ 80%
Fusarium culmorum
  inhibition of growth at 20 ppm: ≥ 80%
[3]
  inhibition of growth at 60 ppm: ≥ 80%
other
  melting point: 168 to 170 °C

## Cc1cccc2c(C3=NC(C)(C)C(C)(C)c4c(F)cccc43)cnn12 [Compound E-59, 5-fluoro-3,3,4,4-tetramethyl-1-(7-methylpyrazolo[1,5-a]pyridin-3-yl)isoquinoline]
[1]
  inhibition of growth at 20 ppm: ≥ 80%
[2]
  inhibition of growth at 20 ppm: ≥ 80%
Fusarium culmorum
  inhibition of growth at 20 ppm: ≥ 80%
[4]
  inhibition of growth at 20 ppm: ≥ 80%
[5]
  pest or weed control at 200 ppm: ≥ 50%
other
  melting point: 134 to 136 °C

## CC1(C)N=C(c2cnc3c(C#N)cccn23)c2cccc(F)c2C1(C)C [Compound E-38, 3-(5-fluoro-3,3,4,4-tetramethyl-1-isoquinolyl)imidazo[1,2-a]pyridine-8-carbonitrile]
[1]
  inhibition of growth at 20 ppm: ≥ 80%
[2]
  inhibition of growth at 20 ppm: ≥ 80%
Gaeumannomyces graminis
  inhibition of growth at 20 ppm: ≥ 80%
[4]
  inhibition of growth at 20 ppm: ≥ 80%

## Cc1ccn2c(C3=NC(C)(C)C(C)(C)c4c(F)cccc43)cnc2c1 [Compound E-31, 5-fluoro-3,3,4,4-tetramethyl-1-(7-methylimidazo[1,2-a]pyridin-3-yl)isoquinoline]
[1]
  inhibition of growth at 20 ppm: ≥ 80%
[2]
  inhibition of growth at 20 ppm: ≥ 80%
Fusarium culmorum
  inhibition of growth at 20 ppm: ≥ 80%
[5]
  pest or weed control at 200 ppm: ≥ 50%

## Cc1ccn2c(C3=NC(C)(C)C(F)(F)c4ccccc43)cnc2c1 [Compound E-55, 4,4-difluoro-3,3-dimethyl-1-(7-methylimidazo[1,2-a]pyridin-3-yl)isoquinoline]
[1]
  inhibition of growth at 20 ppm: ≥ 80%
[2]
  inhibition of growth at 20 ppm: ≥ 80%
Fusarium culmorum
  inhibition of growth at 20 ppm: ≥ 80%
[3]
  inhibition of growth at 60 ppm: ≥ 80%
Sclerotinia sclerotiorum
  inhibition of growth at 20 ppm: ≥ 80%
